The molecules below were run on Human immunodeficiency virus 1 (assay: Antiviral activity against HIV1).
Type: functional, organism-based
With `Cc1ccccc1S(=O)(=O)c1c(C(=O)NCCO)[nH]c2ccc(Cl)cc12` the EC50 was 31 nM.
`Cc1cc(C)cc(S(=O)(=O)c2c(C(=O)NNCCO)[nH]c3ccc(Cl)cc23)c1` was tested, and the EC50 was 1 nM.
`Cc1cc(C)cc(Sc2c(C(=O)NCCO)[nH]c3ccc(Cl)cc23)c1` gave an EC50 of 12 nM.
Work on `CCOC(=O)c1[nH]c2ccccc2c1Sc1ccccc1` yielded an EC50 of 1400 nM.
For `NNC(=O)c1cc2ccccc2n1S(=O)(=O)c1ccccc1`, the EC50 was > 200000 nM.
In the case of `CCOC(=O)c1cc2cc(Cl)ccc2n1S(=O)(=O)c1ccc(C)cc1`, the EC50 is reported as > 200000 nM.
`CCOC(=O)c1cc2cc(Cl)ccc2n1S(=O)(=O)c1cc(Cl)ccc1N` gave an EC50 of 8300 nM.
In the case of `Cc1ccc(S(=O)(=O)c2c(C(=O)NCCO)[nH]c3ccc(Cl)cc23)cc1`, the EC50 is reported as 43 nM.
With `CCOC(=O)c1cc2ccccc2n1S(=O)(=O)c1ccc(Cl)cc1` the EC50 was > 100000 nM.
With `Cc1cc(C)cc(S(=O)(=O)c2c(C(N)=O)[nH]c3ccc(Br)cc23)c1` the EC50 was 2 nM.
For `O=[N+]([O-])c1ccccc1-n1ccc2ccccc21`, the EC50 was 5300 nM.
`NC(=O)c1[nH]c2ccc(Cl)cc2c1S(=O)(=O)c1c(Cl)cccc1Cl` was tested, and the EC50 was 100 nM.
For `NC(=O)c1[nH]c2ccccc2c1Sc1cc(Cl)ccc1N`, the EC50 was 9000 nM.
In the case of `Cc1cc(C)cc(Sc2c(C(=O)NNCCO)[nH]c3ccc(Cl)cc23)c1`, the EC50 is reported as 30 nM.
With `CCOC(=O)c1cc2cc(Cl)ccc2n1S(=O)(=O)c1ccccc1` the EC50 was > 200000 nM.
In the case of `Cc1ccccc1S(=O)(=O)c1c(C(=O)NNCCO)[nH]c2ccc(Cl)cc12`, the EC50 is reported as 50 nM.
`Cc1ccccc1Sc1c(C(=O)NNCCO)[nH]c2ccc(Cl)cc12` was tested, and the EC50 was 100 nM.
With `CCOC(=O)c1[nH]c2ccccc2c1Sc1ccccc1N` the EC50 was > 200000 nM.
`Cc1cc(C)cc(S(=O)(=O)c2c(C(=O)NCCO)[nH]c3ccc(Cl)cc23)c1` was tested, and the EC50 was 0.8 nM.
`NNC(=O)c1[nH]c2ccc(Cl)cc2c1S(=O)(=O)c1ccc(F)cc1` showed an EC50 of 320 nM.
With `Cc1ccccc1Sc1c(C(=O)NCCO)[nH]c2ccc(Cl)cc12` the EC50 was 50 nM.
For `Cc1cc(C)cc(S(=O)(=O)c2c(C(=O)NN)[nH]c3ccc(Cl)cc23)c1`, the EC50 was 130 nM.
In the case of `CCOC(=O)c1cc2ccccc2n1S(=O)(=O)c1ccccc1[N+](=O)[O-]`, the EC50 is reported as 1800 nM.
In the case of `Cc1ccc(S(=O)(=O)c2c(C(N)=O)[nH]c3ccc(Cl)cc23)c(C)c1`, the EC50 is reported as 4 nM.
With `Cc1ccc(S(=O)(=O)c2c(C(=O)NNCCO)[nH]c3ccc(Cl)cc23)c(C)c1` the EC50 was 80 nM.
`Cc1ccccc1S(=O)(=O)c1c(C(N)=O)[nH]c2ccc(Cl)cc12` gave an EC50 of 1 nM.
For `CC(C)(C)c1ccc(Sc2c(C(N)=O)[nH]c3ccc(Cl)cc23)cc1`, the EC50 was 8000 nM.
`CC(C)c1ccc(S(=O)(=O)c2c(C(N)=O)[nH]c3ccc(Cl)cc23)cc1` showed an EC50 of 80 nM.
`Nc1ccc(Cl)c(-n2ccc3ccccc32)c1` was tested, and the EC50 was 3820 nM.
For `CC(C)OC(=O)c1cn(S(=O)(=O)c2ccccc2)c2ccc(Cl)cc12`, the EC50 was > 200000 nM.
For `O=[N+]([O-])c1cc(Cl)ccc1-n1ccc2ccccc21`, the EC50 was 4800 nM.
`CCOC(=O)c1cn(S(=O)(=O)c2ccccc2)c2ccc(Cl)cc12` was tested, and the EC50 was > 42000 nM.
In the case of `CCOC(=O)c1[nH]c2ccccc2c1Sc1cc(Cl)ccc1N`, the EC50 is reported as ≥ 200000 nM.
With `NNC(=O)c1[nH]c2ccc(Cl)cc2c1S(=O)(=O)c1ccccc1` the EC50 was 10 nM.
With `NC(=O)c1[nH]c2ccccc2c1S(=O)(=O)c1ccccc1` the EC50 was 180 nM.
Molecule `Nc1ccc(Cl)cc1-n1ccc2ccccc21` has an EC50 of 6000 nM.
With `CCOC(=O)c1cc2cc(Cl)ccc2n1S(=O)(=O)c1cc(Cl)ccc1[N+](=O)[O-]` the EC50 was > 31000 nM.
With `CCOC(=O)c1cc2cc(Cl)ccc2n1S(=O)(=O)c1ccc(Cl)cc1` the EC50 was > 200000 nM.
Molecule `Cc1cccc(S(=O)(=O)c2c(C(=O)NCCO)[nH]c3ccc(Cl)cc23)c1` has an EC50 of 3 nM.
In the case of `NNC(=O)c1[nH]c2ccc(Cl)cc2c1Sc1ccc(F)cc1`, the EC50 is reported as 5000 nM.
`Cc1cccc(Sc2c(C(=O)NCCO)[nH]c3ccc(Cl)cc23)c1` gave an EC50 of 80 nM.
With `NC(=O)c1[nH]c2ccc(Cl)cc2c1S(=O)(=O)c1cc(Cl)ccc1N` the EC50 was 40 nM.
For `Cc1ccc(S(=O)(=O)c2c(C(=O)NCCO)[nH]c3ccc(Cl)cc23)c(C)c1`, the EC50 was 8 nM.
`NC(=O)c1cn(S(=O)(=O)c2ccccc2)c2ccccc12` was tested, and the EC50 was > 32000 nM.
`O=[N+]([O-])c1ccc(Cl)c(-n2ccc3ccccc32)c1` gave an EC50 of 5220 nM.
With `O=S(=O)(c1ccccc1)n1ccc2ccccc21` the EC50 was > 150000 nM.
In the case of `Cc1ccc(S(=O)(=O)c2c(C(N)=O)[nH]c3ccc(Cl)cc23)cc1`, the EC50 is reported as 3 nM.
`Nc1cc(Cl)ccc1-n1ccc2ccccc21` showed an EC50 of 4130 nM.
Molecule `NNC(=O)c1[nH]c2ccc(Cl)cc2c1Sc1ccccc1` has an EC50 of 550 nM.
In the case of `NC(=O)c1[nH]c2ccc(Cl)cc2c1Sc1ccccc1`, the EC50 is reported as 20 nM.
With `NC(=O)c1cc2cc(Cl)ccc2n1S(=O)(=O)c1ccccc1` the EC50 was 66600 nM.
For `NNC(=O)c1[nH]c2ccc(Cl)cc2c1Sc1ccc(Cl)cc1`, the EC50 was 10000 nM.
In the case of `Cc1ccc(S(=O)(=O)c2c(C(=O)NNCCO)[nH]c3ccc(Cl)cc23)cc1`, the EC50 is reported as 40 nM.
`Nc1ccccc1-n1ccc2ccccc21` was tested, and the EC50 was 4960 nM.
For `NC(=O)c1[nH]c2ccc(Cl)cc2c1S(=O)(=O)c1ccccc1` [L-737126], the EC50 was 1 nM.
With `Cc1cccc(S(=O)(=O)c2c(C(=O)NNCCO)[nH]c3ccc(Cl)cc23)c1` the EC50 was 7 nM.
`Cc1ccc(Sc2c(C(=O)NNCCO)[nH]c3ccc(Cl)cc23)c(C)c1` showed an EC50 of 1200 nM.
In the case of `O=C(NCCO)c1[nH]c2ccc(Cl)cc2c1Sc1ccccc1`, the EC50 is reported as 40 nM.
In the case of `CC(C)OC(=O)c1cn(S(=O)(=O)c2ccccc2)c2ccccc12`, the EC50 is reported as > 54000 nM.
For `Cc1ccc(Sc2c(C(=O)NCCO)[nH]c3ccc(Cl)cc23)cc1`, the EC50 was 120 nM.
`Cc1ccc(Sc2c(C(N)=O)[nH]c3ccc(Cl)cc23)cc1` was tested, and the EC50 was > 450 nM.
Molecule `O=C(NNCCO)c1[nH]c2ccc(Cl)cc2c1Sc1ccccc1` has an EC50 of 200 nM.
In the case of `Cc1cc(C)cc(S(=O)(=O)c2c(C(N)=O)[nH]c3ccc(Cl)cc23)c1`, the EC50 is reported as 4 nM.
`Cc1cccc(S(=O)(=O)c2c(C(N)=O)[nH]c3ccc(Cl)cc23)c1` gave an EC50 of 1 nM.
With `NNC(=O)c1[nH]c2ccccc2c1S(=O)(=O)c1ccccc1` the EC50 was 530 nM.
With `CCOC(=O)c1cc2ccccc2n1S(=O)(=O)c1cc(Cl)ccc1[N+](=O)[O-]` the EC50 was > 100000 nM.
`CCOC(=O)c1cn(S(=O)(=O)c2ccccc2)c2ccccc12` was tested, and the EC50 was > 32000 nM.
`O=[N+]([O-])c1ccc(Cl)cc1-n1ccc2ccccc21` showed an EC50 of 5400 nM.
Work on `NC(=O)c1[nH]c2ccccc2c1S(=O)(=O)c1cc(Cl)ccc1N` yielded an EC50 of 300 nM.
Molecule `Cc1cc(C)cc(Sc2c(C(N)=O)[nH]c3ccc(Cl)cc23)c1` has an EC50 of 6 nM.
`NNC(=O)c1[nH]c2ccc(Cl)cc2c1S(=O)(=O)c1cc(Cl)ccc1N` was tested, and the EC50 was 300 nM.
For `CCOC(=O)c1[nH]c2ccc(Cl)cc2c1S(=O)(=O)c1ccccc1N`, the EC50 was > 200000 nM.
With `Cc1ccc(S(=O)(=O)c2c(C(=O)NN)[nH]c3ccc(Cl)cc23)cc1` the EC50 was 50 nM.
With `Cc1ccc(Sc2c(C(=O)NNCCO)[nH]c3ccc(Cl)cc23)cc1` the EC50 was 600 nM.
With `Cc1ccccc1Sc1c(C(N)=O)[nH]c2ccc(Cl)cc12` the EC50 was 300 nM.
Molecule `Cc1cccc(Sc2c(C(=O)NCCO)[nH]c3ccc(Cl)cc23)c1C` has an EC50 of 100 nM.
For `NNC(=O)c1[nH]c2ccc(Cl)cc2c1Sc1cc(Cl)ccc1N`, the EC50 was > 13000 nM.
Work on `O=C(NCCO)c1[nH]c2ccc(Cl)cc2c1S(=O)(=O)c1ccccc1` yielded an EC50 of 1 nM.
For `O=S(=O)(c1ccccc1)n1ccc2cc(Cl)ccc21`, the EC50 was > 75000 nM.
In the case of `NNC(=O)c1[nH]c2ccc(Cl)cc2c1S(=O)(=O)c1ccc(Cl)cc1`, the EC50 is reported as 190 nM.
`O=C(NNCCO)c1[nH]c2ccc(Cl)cc2c1S(=O)(=O)c1ccccc1` gave an EC50 of 10 nM.

— ChEMBL document CHEMBL1147813, “Design, molecular modeling, synthesis, and anti-HIV-1 activity of new indolyl aryl sulfones. Novel derivatives of the indole-2-carboxamide” (J Med Chem, 2006)
